In patent US20030040485A1, “alpha/beta-adrenoceptors blockers and angiotensin converting enzyme inhibitors derived from hydroxyphenyl carboxylic acid and alcohol” (priority 2001, published 2003):

Assays:
[1] = target: β1-adrenoceptor (left atrium) (Rattus norvegicus, UniProt P18090); experiment: β1-adrenoceptor antagonism, left atrium, pA2; conditions: Schild plot, mean ± SEM of six to eight experiments
[2] = tested on: blood pressure of normotensive male Wistar rats; experiment: Heart rate and blood pressure in living rat (i.v., anaesthetized); format: in vivo; conditions: maximal decrease, 2 mg/kg i.v.
From the text: Normotensive Male Wistar rats (NTRs), weighing 200˜300 g were abdominal anaesthetized with pentobarbital sodium. Tracheal was cannulated to maintain normal respiration. Polyethylene tube was inserted into the left femoral vein to facilitate drug administration. A 3-way stopcock was used, with one end comnected to a syringe for drug injection, while the other end was connected to the syringe filled with physiological saline. The latter was used to prevent residual drugs in the polyethylene tube after injection, which would affect experimental accuracy.
The right femoral artery was also inserted with polyethylene, and a 3-way stopcock was used tool, where one end was connected to heparin solution to prevent embolism. The other end was comnected to a Disposable Diaphragm Dome, TA1019, and linked to a pressure transducer (Model P10EZ; Spectramed, Oxnard, Calif., USA). Through an amplifier, a recorder recorded the overall and average arterial pressure; heart rate to evaluate the effect of drug on blood pressure and heart rate. Different concentrations 0.1, 1.0, 2.0, 3.0 mg/kg of test compounds were given to the rats via femoral vein and the differences in the heart rate and blood pressure were compared. Table 2 shown maximal decrease of blood pressure affect of compounds after given 2.0 mg/kg test compounds to the rats.

[3] = tested on: β1-adrenoceptor (right atrium); experiment: β1-adrenoceptor antagonism, spontaneously beating right atrium, pA2 vs L-isoproterenol; conditions: for β1/β2 Ratio: antilogarithm of difference between mean pA2 of right atrium and trachea; for β1 pA2 value, Right atrium: Schild plot, mean ± SEM of six to eight experiments
Protocol: The spontaneously-beating right atria was clipped on both end by heart shaped clips, where one end was fixed at the bottom of 10 ml of tissue bath made of physiological saline solution, and temperature maintained at 37° C. The other end of the atria was connected to a force transducer, and isometric contractions and beating rate of the right atria were recorded by COULBOURN AT-High-Speed VideoFigure. After the samples were given 250 mg of contractions and reach equilibrium the following experiments were carried out:
(§1) When the spontaneously beating rate of right atria reached a certain stability, cumulative administration of L-isoproterenol from 1×10^−10˜3×10^−10 M caused the heart rate to increase continuously, and a cumulative dose-response curve was obtained. Then the L-isoproterenol was thoroughly washed off with Kreb's solution to recover the right atria's heart rate stability. After the equilibrum was reached again for at least 60 minutes, different concentrations (10^−7, 10^−6, 10^−5 M) of compounds were added. 30 minutes later, cumulative administration of L-isoproterenol from 1×10^−10˜3×10^−10 M were carried out again, and another new cumulative dose-response curve was obtained. Administration of L-isoproterenol started from concentration 1×10^−10 M, and the concentration was raised 0.5 log each time for a total of six times. Cumulative administration interval was when the previous concentration reached its greatest effect, the next concentration would be immediately given. […] In other groups of rats, after separate administration of test compounds, their pA2 values were obtained.
pA2=−Log KB Log(DRADJ−1)=n log[B]−LogKB

[4] = tested on: β2-adrenoceptor (trachea); experiment: β2-adrenoceptor antagonism, trachea, pA2; design: species or system rat; conditions: Schild plot, mean ± SEM of six to eight experiments
Protocol: as §1
pA2=−Log KB Log(DRADJ−1)=n log[B]−LogKB

[5] = target: T1, angiotensin converting enzyme (ACE) (Rattus norvegicus, UniProt P47820); experiment: ACE inhibitory activity in rat serum (Hycor kit, [3H]-hippuryl-glycyl-glycine); format: biochemical; conditions: mean of three samples
T1 construct: from tissue; host or cells: rat serum
T1 sequence (P47820 36-1238 limits assumed): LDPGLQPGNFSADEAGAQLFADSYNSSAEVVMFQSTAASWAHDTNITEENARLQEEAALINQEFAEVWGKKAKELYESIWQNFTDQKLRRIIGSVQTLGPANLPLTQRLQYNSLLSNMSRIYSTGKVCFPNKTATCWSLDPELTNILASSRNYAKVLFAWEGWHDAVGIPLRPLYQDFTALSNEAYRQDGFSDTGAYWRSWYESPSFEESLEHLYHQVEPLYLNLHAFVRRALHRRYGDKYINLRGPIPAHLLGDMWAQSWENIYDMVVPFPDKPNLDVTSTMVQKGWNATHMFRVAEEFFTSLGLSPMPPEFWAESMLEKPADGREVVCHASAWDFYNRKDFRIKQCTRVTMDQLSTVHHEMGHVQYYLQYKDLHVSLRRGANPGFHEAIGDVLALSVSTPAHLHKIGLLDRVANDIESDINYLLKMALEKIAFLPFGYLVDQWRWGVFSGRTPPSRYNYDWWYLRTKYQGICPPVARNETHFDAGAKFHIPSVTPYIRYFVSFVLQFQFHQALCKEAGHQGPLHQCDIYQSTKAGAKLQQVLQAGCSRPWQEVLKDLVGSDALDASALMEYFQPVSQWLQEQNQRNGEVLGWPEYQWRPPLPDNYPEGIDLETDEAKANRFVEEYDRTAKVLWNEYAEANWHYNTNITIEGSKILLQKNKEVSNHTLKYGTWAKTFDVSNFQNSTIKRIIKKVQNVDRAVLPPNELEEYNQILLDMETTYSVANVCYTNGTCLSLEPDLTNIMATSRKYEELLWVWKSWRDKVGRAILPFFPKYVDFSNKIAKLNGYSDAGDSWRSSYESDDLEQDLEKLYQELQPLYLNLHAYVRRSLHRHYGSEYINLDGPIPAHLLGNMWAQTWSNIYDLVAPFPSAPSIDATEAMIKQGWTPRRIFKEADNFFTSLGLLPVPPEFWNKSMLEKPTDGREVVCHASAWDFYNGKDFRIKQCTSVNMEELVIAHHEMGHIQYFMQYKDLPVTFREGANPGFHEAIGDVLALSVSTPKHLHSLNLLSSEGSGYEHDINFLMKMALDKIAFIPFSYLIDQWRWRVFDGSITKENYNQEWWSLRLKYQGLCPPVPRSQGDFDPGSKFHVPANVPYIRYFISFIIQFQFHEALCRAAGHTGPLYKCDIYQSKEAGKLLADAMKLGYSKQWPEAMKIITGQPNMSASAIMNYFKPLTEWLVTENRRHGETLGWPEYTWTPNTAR
Protocol: ACE value in serum was determined by Hycor kit, rat serum were cultured in 37° C. of [^3H]-hippuryl-glycyl-glycine for 60 minutes. While [^3H]-hippuryl-glycyl-glycine contains three peptide. [^3H] hippuric acid was obtained when extracted of culture solution with ethyl acetate, the content be determined by spectrophotometer. The content in serum sample was as the control group after it was added with 10^−8M, 10^−7M, 10^−6M compounds, then dissolved in PBS.

[6] = target: T2, angiotensin converting enzyme (ACE) (Rattus norvegicus, UniProt P47820); experiment: ACE activity value on tissue (rat lung membrane, Hip-His-Leu, fluorometric); format: biochemical; conditions: mean of three samples
T2 construct: Centrifuged 250-300 mg lung tissue; from tissue; host or cells: rat lung membrane fraction
T2 sequence (P47820 36-1313): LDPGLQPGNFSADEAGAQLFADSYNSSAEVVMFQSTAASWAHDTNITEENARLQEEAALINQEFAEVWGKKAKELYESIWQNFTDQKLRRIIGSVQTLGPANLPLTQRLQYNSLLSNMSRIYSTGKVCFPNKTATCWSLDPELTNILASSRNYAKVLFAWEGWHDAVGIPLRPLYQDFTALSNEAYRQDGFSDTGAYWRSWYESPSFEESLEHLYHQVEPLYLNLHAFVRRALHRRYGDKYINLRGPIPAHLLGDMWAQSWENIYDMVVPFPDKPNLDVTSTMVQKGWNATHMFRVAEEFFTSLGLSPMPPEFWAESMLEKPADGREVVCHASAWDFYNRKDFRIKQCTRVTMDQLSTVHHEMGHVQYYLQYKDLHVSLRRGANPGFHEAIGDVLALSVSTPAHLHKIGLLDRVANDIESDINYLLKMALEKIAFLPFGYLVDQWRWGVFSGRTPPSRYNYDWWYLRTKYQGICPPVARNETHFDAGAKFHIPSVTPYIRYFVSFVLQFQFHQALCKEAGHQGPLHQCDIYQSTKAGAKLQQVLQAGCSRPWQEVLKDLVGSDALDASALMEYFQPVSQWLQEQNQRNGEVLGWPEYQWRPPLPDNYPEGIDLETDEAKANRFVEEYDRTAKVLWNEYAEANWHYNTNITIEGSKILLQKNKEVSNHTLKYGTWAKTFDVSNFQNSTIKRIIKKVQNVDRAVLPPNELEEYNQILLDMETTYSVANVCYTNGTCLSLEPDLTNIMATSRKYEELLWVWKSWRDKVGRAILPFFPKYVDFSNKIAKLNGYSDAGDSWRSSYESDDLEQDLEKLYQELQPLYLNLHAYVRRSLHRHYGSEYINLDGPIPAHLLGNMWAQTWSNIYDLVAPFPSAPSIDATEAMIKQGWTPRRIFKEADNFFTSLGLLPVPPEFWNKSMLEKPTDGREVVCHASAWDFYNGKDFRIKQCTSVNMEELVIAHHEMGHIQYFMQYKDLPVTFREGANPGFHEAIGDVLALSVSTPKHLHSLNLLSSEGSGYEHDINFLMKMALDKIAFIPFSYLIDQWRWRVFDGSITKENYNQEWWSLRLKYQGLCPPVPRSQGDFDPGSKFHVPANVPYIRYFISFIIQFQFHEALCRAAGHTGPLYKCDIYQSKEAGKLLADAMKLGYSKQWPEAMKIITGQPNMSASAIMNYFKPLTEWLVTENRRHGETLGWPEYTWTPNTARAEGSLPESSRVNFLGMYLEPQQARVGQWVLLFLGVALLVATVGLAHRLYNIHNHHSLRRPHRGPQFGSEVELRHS
Protocol: Centrifuged 250-300 mg lung tissue, 3 ml extracted liquid (10 mmol/L HEPES, 125 mmol/L NaCl, pH7.4) under 12000 g for 20 minutes at 4° C. by Teflon-glass homogenizer, the cell membrane was obtained. The 3 ml homogenized liquid was added into twice, before and after centrifuged. Then the Lowry's method was adopted to determine the protein content in the membrane. Mixing 15 minute of liquid and 30 mmol/L Hip-His-Leu solution at 37° C. Fluorometric was used to determine the Hippurate content. test compounds (10^−8M, 10^−7M, 10^−6M) dissolved in PBS normal saline and used as control group. Then ACE activity inhibition rate was determined.

[7] = tested on: α1-adrenoceptor (aorta); experiment: α-adrenoceptor antagonism, isolated rat aorta, pA2 vs norepinephrine; design: species or system Wistar rat; conditions: Schild plot, mean ± SEM of six to eight experiments
Protocol: Vascular α-adrenoceptor blocking activity was evaluated in the Wistar rat aorta preparation. Isolated rat aorta preparations were mounted in organ bath and suspended in Krebs solution at 37° C. […] or 75 mM KCl was added to the bath medium after a control concentration-response curve to norepinephrine had been obtained. The tissue was exposed to test compounds for 30 min before rechallenging with norepinephrine. Inhibitions were expressed as percentages of the maximum contraction obtained by the challenge of the tissues with norepinephrine. The 70 mM NaCl on 75 mM KCl solution may to replace with equimolar KCl, if necessary.
The methods published by Huang Y C. et. al. in J Cardiovasc Pharmacol.34, pp.10-20 (1999) and Drug Devel Res. 47, 77-89 (1999). Through referenced and modified method to evaluate, test compounds whether have α1-adrenergic and sertoninergic effect.
Isolated Wistar rat aorta preparations were mounted in organ bath and suspended in Krebs solution (NaCl, 118 mM, KCl, 4.8 mM; CaCl,2.5 mM; MgSO4,1.2 mM; K2PO4,1.2 Mm; […] Mm; glucose, 11 mM) at 37° C. under 1 g resting tension.
Upon balancing for 60 minutes, 10^−10-10^−4 M norepinephrine is administered directly from low concentration to high using 0.5 log unit to gradually increase until the maximum reaction is reached, and this act as the control unit. Then different concentrations of the synthetic testing compounds, 10^−7 M, 10^−6 M, or 10^−5M, are used, and upon 30 minutes of reaction, norepinephrine is used again to complete the cumulative dose. The EC50 value of blocking […] may be obtained from observation of the suppressing effects caused by different concentrations of the synthetic testing compound.
The equation is as follows: […]

Chain of β1-adrenoceptor (left atrium) (P18090 whole entry): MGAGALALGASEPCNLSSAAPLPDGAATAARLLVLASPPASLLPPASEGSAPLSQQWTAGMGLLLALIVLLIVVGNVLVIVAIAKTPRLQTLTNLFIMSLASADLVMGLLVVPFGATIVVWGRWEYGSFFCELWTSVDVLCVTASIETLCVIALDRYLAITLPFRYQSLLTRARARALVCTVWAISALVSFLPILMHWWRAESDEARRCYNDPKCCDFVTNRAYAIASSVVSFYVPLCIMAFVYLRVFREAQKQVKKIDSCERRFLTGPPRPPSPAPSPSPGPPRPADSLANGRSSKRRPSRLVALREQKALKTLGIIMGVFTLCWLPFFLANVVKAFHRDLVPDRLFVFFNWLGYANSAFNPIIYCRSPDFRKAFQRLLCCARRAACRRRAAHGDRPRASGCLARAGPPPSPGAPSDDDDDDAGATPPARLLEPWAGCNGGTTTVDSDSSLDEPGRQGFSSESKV

Row | Compound | β1 pA2 value, Left atrium [1] | Decrease of blood pressure [2] | β1/β2 Ratio [3] | β1 pA2 value, Right atrium [3] | β2 pA2 value, Trachea [4] | inhibition at 1 µM ([5]; 10^−6M) | inhibition at 0.1 µM ([5]; 10^−7M) | inhibition at 0.01 µM ([5]; 10^−8M) | inhibition at 1 µM ([6]; 10^−6M, read-out: Inhibitory activity of ACE, In Rat lung) | inhibition at 0.1 µM ([6]; 10^−7M, read-out: Inhibitory activity of ACE, In Rat lung) | Inhibitory activity of ACE, In Rat lung ([6]; 10^−8M) | α1 pA2 value, Aorta [7] | Kb [1]
1 | 1-[(4 -Propenoic acid ethyl ester)phenoxy-3-amino]-propanol [compound 1] | 6.92 | 60 ± 4.7 mmHg | 2.1 | 6.83 | 6.43 |  |  |  |  |  |  |  | 
2 | CCOC(=O)[C@H](CCc1ccccc1)N[C@@H](C)C(=O)N1CCC[C@H]1C(=O)O [Enalapril, reference compound] |  |  |  |  |  | 99% | 94% | 54% | 98% | 93% | 51% |  | 
3 | CC(C)NCC(O)COc1ccc(CC(N)=O)cc1 (centres unmarked) [atenolol, reference compound] |  |  |  | 7.34 | 5.81 |  |  |  |  |  |  | <5.00 | 
4 | COc1cc(CO)ccc1OCC(O)CNC(C)(C)C (centres unmarked) [compound 2, Vanynolol] | 6.84 | 72 ± 2.5 mmHg | 2.3 | 6.67 | 6.61 |  |  |  |  |  |  | 7.23 | 
5 | CCOC(=O)CCc1ccc(OCC(O)CNCCOc2ccccc2OC)cc1 (centres unmarked) [compound 3, Propiodilol] | 6.78 | 56 ± 3.8 mmHg | 1.9 | 6.74 | 6.71 |  |  |  |  |  |  |  | 
6 | COc1ccccc1OCCNCC(O)COc1ccc(CO)cc1OC (centres unmarked) [compound 4, Vanydilol] | 6.76 | 83 ± 9.1 mmHg | 1.6 | 6.72 | 6.69 |  |  |  |  |  |  | 7.89 | 
7 | CC(CCc1ccccc1)NCC(O)c1ccc(O)c(C(N)=O)c1 (centres unmarked) [labetalol, reference compound] |  |  | 2.3 | 7.91 | 7.54 |  |  |  |  |  |  | 6.87 | 28.8 nM
8 | CC(C)NCC(O)COc1cccc2ccccc12 (centres unmarked) [propranolol, reference compound] |  |  |  |  | 8.07 |  |  |  |  |  |  | <5.00 | 
